Consider 13 compounds from ChEMBL document CHEMBL3045785, “Synthesis and anti-inflammatory activity of 1-acetyl/propanoyl-5-aryl-3-(4-morpholinophenyl)-4,5-dihydro-1H-pyrazole derivatives” (2012).

Test [1] relates to Rattus norvegicus. In words: Anti-inflammatory activity in Rattus norvegicus albino (rat) assessed as inhibition of carrageenan-induced paw edema at 10 mg/kg, ip administered 1 hr prior tocarrageenan-challenge measured after 3 hr relative to indomethacin. In kind it is functional. The note with it: route intraperitoneal. (In general: Carrageenan injected into the paw causes an acute inflammation.)

Test [2] has as its system Rattus norvegicus. In words: Anti-inflammatory activity in Rattus norvegicus albino (rat) assessed as inhibition of carrageenan-induced paw edema at 10 mg/kg, ip administered 1 hr prior tocarrageenan-challenge measured after 3 hr relative to control. In kind it is functional. The note with it: route intraperitoneal.

For orientation: inhibition in vivo means the relative decrease from the control value, in per cent. As to `CCC(=O)N1N=C(c2ccc(N3CCOCC3)cc2)CC1c1cc(OC)cc(OC)c1` (stereo not given), the inhibition in vivo at 10 mg/kg in test [1] was 27%; in test [2], 15.9%.

In the case of `CCC(=O)N1N=C(c2ccc(N3CCOCC3)cc2)CC1c1cc(OC)c(OC)c(OC)c1` (stereo not given), the inhibition in vivo at 10 mg/kg in test [1] stood at 1.84%; in test [2], 1.08%.

Regarding `CC(=O)N1N=C(c2ccc(N3CCOCC3)cc2)CC1c1cccs1` (stereo not given), the inhibition in vivo at 10 mg/kg in test [1] was found to be 11.7%; in test [2], 6.86%.

For the compound `CC(=O)N1N=C(c2ccc(N3CCOCC3)cc2)CC1c1ccc(Br)cc1` (stereo not given), the values for the inhibition in vivo at 10 mg/kg in test [1] and in test [2] were 19% and 11.2%, respectively.

Turning to `COc1ccccc1C1CC(c2ccc(N3CCOCC3)cc2)=NN1C(C)=O` (stereo not given), the results for the inhibition in vivo at 10 mg/kg in test [1] and in test [2] were 52.8% and 31.1%, respectively.

On to `COc1ccc(C2CC(c3ccc(N4CCOCC4)cc3)=NN2C(C)=O)cc1OC` (stereo not given), for which the inhibition in vivo at 10 mg/kg is 9.82% in test [1] and 5.78% in test [2].

In the case of `COc1cc(OC)cc(C2CC(c3ccc(N4CCOCC4)cc3)=NN2C(C)=O)c1` (stereo not given), the inhibition in vivo at 10 mg/kg in test [1] stood at 22.7%; in test [2], 13.4%.

Consider `COc1cc(C2CC(c3ccc(N4CCOCC4)cc3)=NN2C(C)=O)cc(OC)c1OC` (stereo not given), for which the inhibition in vivo at 10 mg/kg in test [1] came to 6.13%; in test [2], 3.61%.

In the case of `CCC(=O)N1N=C(c2ccc(N3CCOCC3)cc2)CC1c1cccs1` (stereo not given), the inhibition in vivo at 10 mg/kg in test [1] came out at 1.84%; in test [2] it was 1.08%.

For the compound `CCC(=O)N1N=C(c2ccc(N3CCOCC3)cc2)CC1c1ccc(Br)cc1` (stereo not given), the inhibition in vivo at 10 mg/kg came to 31.3% in test [1] and 18.4% in test [2].

Consider `CCC(=O)N1N=C(c2ccc(N3CCOCC3)cc2)CC1c1ccccc1OC` (stereo not given), for which the values for the inhibition in vivo at 10 mg/kg in test [1] and in test [2] were 10.4% and 6.14%, respectively.

In the case of `CCC(=O)N1N=C(c2ccc(N3CCOCC3)cc2)CC1c1ccc(OC)c(OC)c1` (stereo not given), the inhibition in vivo at 10 mg/kg in test [1] came to 52.8%; in test [2] it was 31.1%.

Regarding `COc1ccc2c(c1)c(CC(=O)O)c(C)n2C(=O)c1ccc(Cl)cc1` [INDOMETHACIN], the inhibition in vivo at 10 mg/kg in test [2] was determined as 58.8%.
